Data from article PMC10290335 (Malaria Journal, 2023).

Key:
[1] = Clinical pharmacokinetics of ivermectin metabolites in blood of healthy volunteers; format: in vivo, human; conditions: for Cmax [ratio]: area/internal standard area ratio; for Cmax [ratio] / Half-life / MRTlast / Tmax: whole blood, 12 subjects, mean ± SE; for Cmax [ratio] / Half-life / MRTlast: 12 mg ivermectin, NCA; for Tmax: single oral 12 mg ivermectin
Experimental: Peripheral venous blood samples were collected before dosing and after 1, 2, 4, 6, 8, 12, 24, 48 and 72 h. Blood samples (50 µL) were extracted by the addition of 150 µL ISTD solution. Samples were mixed for 1 min and centrifuged for 30 min at 3220×g and 15 °C (5810 R centrifuge). Twenty microlitres of supernatant were injected into the LC–MS/MS system to determine the signal intensity of the metabolites.
The different LC–MS/MS settings were applied for the metabolism, pharmacokinetic and metabolite fractioning assays (Additional file 1: Table S1, S2, S3). All analyses were performed on a modular HPLC (Shimadzu, Kyoto, Japan) composed of four pumps (2 × LC-30AD, 2 × LC-20AD), an autosampler (SIL 30-AC MP), a system controller (CBM-20A), two degassing units (DGU-20A5 and DGU-20A3R), a column oven (CTO-20AC), a low-pressure valve (FCV-12AH), and a fraction collector (FRC-12A). The HPLC system was connected to an API 5000 triple quadrupole mass spectrometer (AB Sciex, Ontario, Canada) that was equipped with a turbo electrospray ionization source. The system was operated with Analyst Software 1.7 (AB Sciex) and acquired data were analysed using MultiQuant Software 3.0.3 (AB Sciex).
The integral method “linear up log down” was used on area/internal standard area ratio.
In total, three T0 blank blood samples originating from different PK study participants were used to resuspend the metabolites (Additional file 1: Table S5). The signal intensity was recorded for every metabolite by extracting the 50 µL blood with 150 µL of ISTD solution. The metabolite peak area was determined by LC–MS/MS (see section LC-MS/MS analysis of ivermectin). Moreover, the PK samples of all study participants were equally extracted and analysed to derive the maximal blood level (Cmax) from the blood level-time curves. Afterwards, the mean metabolite peak area of the spiked blank blood was compared with the mean peak area of the Cmax samples (Additional file 1: Table S5). The amount of each metabolite fraction was either reduced or increased to match the peak area of Cmax samples. If the metabolite was not detectable in PK samples, the amount of metabolite was adjusted to the lower limit of detection of the method. In this case, blank blood was spiked with the metabolite fraction to receive a signal intensity that is three times larger than the corresponding noise level.

[2] = system: Anopheles stephensi mosquitoes; assay: Anopheles stephensi membrane feeding screening assay (survival and activity); format: in vivo; conditions: for Average activity score: score +2 flying, +1 moving, 0 dead; for activity against An. stephensi: at Cmax levels observed in clinical PK samples
Experimental: The final DMSO content in blood was 0.1%, which was also the DMSO concentration used for the negative control assays (0.1% DMSO in blank blood). Inclusion of blank fractions as additional negative controls were not considered, because it would not have been feasible to also test the corresponding blank fraction for each metabolite fraction (F1–F9). The blood preparations were rotated at room temperature for 20 min to ensure a uniform metabolite distribution (Rotator Genie, Scientific Industries, Bohemia, USA). The dissolution of the metabolites was confirmed by LC–MS/MS.
Around 50–70 female mosquitoes aged 5–10 days post-emergence were transferred with a mouth aspirator into 20 mL paper cups. A piece of mosquito netting was used to cover the cups. Mosquitoes were starved for 24 h before treatment. The mosquito blood meals were heated in a water bath (SAHARA PPO S5P Heated Bath Circulators, Thermo Fisher Scientific, New Hampshire, USA) for 20 min at 39 °C. A Petri dish (35 mm × 10 mm, BD, Franklin Lakes, USA) was filled with 3 mL of warm blood, sealed with a piece of sealing film (Parafilm®, Huberlab AG, Aesch, Switzerland). The Petri dish was placed upside down on top of the net sealing the paper cup. Female mosquitoes were allowed to feed for 20 min on the blood through the net and the sealing film. The feeding was conducted in a climate chamber (HPP110, Memmert GmbH + Co.KG, Schwabach, Germany) at 27 °C, 70% humidity, and 30% light intensity. After feeding, the cups were put on ice to immobilise the mosquitoes and only the fully engorged mosquitoes were selected for the assay. The mosquitoes were returned to the climate chamber to assess their activity and survival for 3 days.
In the framework of screening assays, mosquitoes were treated with blood containing each metabolite corresponding to Cmax levels observed in PK samples. […] In screening assays, eleven treatments were evaluated with three replicates using three batches of 50–70 mosquitoes.

[3] = mean of PK subjects 1-12, 50 µL blood

| Compound | Observed Cmax, peak area ([1]; PK subject 1, 50 µL blood) | Observed Cmax, peak area ([1]; PK subject 2, 50 µL blood) | Observed Cmax, peak area ([1]; PK subject 3, 50 µL blood) | Observed Cmax, peak area ([1]; PK subject 4, 50 µL blood) | Observed Cmax, peak area ([1]; PK subject 5, 50 µL blood) | Observed Cmax, peak area ([1]; PK subject 6, 50 µL blood) | Observed Cmax, peak area ([1]; PK subject 7, 50 µL blood) | Observed Cmax, peak area ([1]; PK subject 8, 50 µL blood) | Observed Cmax, peak area ([1]; PK subject 9, 50 µL blood) | Observed Cmax, peak area ([1]; PK subject 10, 50 µL blood) | Observed Cmax, peak area ([1]; PK subject 11, 50 µL blood) | Observed Cmax, peak area ([1]; PK subject 12, 50 µL blood) | Cmax [ratio] [1] | Observed Cmax, peak area [1, 3] | Half-life [1] | Tmax [1] | Average activity score ([2]; 0 h post feeding) | Average activity score ([2]; 24 h post feeding) | Average activity score ([2]; 48 h post feeding) | Average activity score ([2]; 72 h post feeding) | other results |
| --- | --- | --- | --- | --- | --- | --- | --- | --- | --- | --- | --- | --- | --- | --- | --- | --- | --- | --- | --- | --- | --- |
| 3″-O-desmethyl, 26-hydroxy-H2B1a [M6] | 3.04E+03 counts | 1.56E+03 counts | 2.10E+03 counts | 1.60E+03 counts | 1.15E+03 counts | 3.23E+03 counts | 1.62E+03 counts | 1.82E+03 counts | 1.80E+03 counts | 1.99E+03 counts | 2.12E+03 counts | 2.69E+03 counts | 0.002 ± 0.0002 ratio | 2.06E+03 counts | 32.4 ± 4.1 h | 5.4 ± 0.4 h | 2.00 | 1.89 | 1.91 | 1.42 | MRTlast [1]: 18.3 ± 1.6 h; activity against An. stephensi [2]: minor mosquitocidal properties; mean survival of mosquitoes after blood meal ([2]; blood meal at Cmax level): decreased |
| 4, 26-dihydroxy- H2B1a [M8] | 7.02E+02 counts | 5.34E+02 counts | 4.91E+02 counts | 3.41E+02 counts | 3.43E+02 counts | 6.41E+02 counts | 3.42E+02 counts | 4.91E+02 counts | 4.29E+02 counts | 4.93E+02 counts | 2.79E+02 counts | 4.55E+02 counts |  | 4.62E+02 counts |  | 5.0 ± 0.3 h | 2.00 | 1.91 | 1.93 | 1.68 |  |
| 26-hydroxy-H2B1a [M3] | 6.21E+03 counts | 3.33E+03 counts | 4.98E+03 counts | 2.70E+03 counts | 3.63E+03 counts | 5.52E+03 counts | 4.44E+03 counts | 4.04E+03 counts | 3.41E+03 counts | 4.42E+03 counts | 4.22E+03 counts | 4.51E+03 counts | 0.003 ± 0.0003 ratio | 4.28E+03 counts | 15.9 ± 2.8 h | 5.3 ± 0.2 h | 2.00 | 1.82 | 1.86 | 1.67 | MRTlast [1]: 13.9 ± 1.3 h |
| 26-hydroxy-H2B1a monosaccharide [M7] | 1.31E+03 counts | 7.70E+02 counts | 9.70E+02 counts | 7.68E+02 counts | 8.12E+02 counts | 1.39E+03 counts | 1.26E+03 counts | 1.09E+03 counts | 7.88E+02 counts | 9.63E+02 counts | 1.21E+03 counts | 9.57E+02 counts |  | 1.02E+03 counts |  | 6.1 ± 0.4 h | 2.00 | 1.85 | 1.80 | 1.69 |  |
| CCC(C)C1OC2(CCC1C)CC1CC(CC=C(C)C(OC3CC(OC)C(OC4CC(O)C(O)C(C)O4)C(C)O3)C(C)C=CC=C3COC4C(O)C(CO)=CC(C(=O)O1)C34O)O2 (centres unmarked) [M4, 3″-O-desmethyl, 4-hydroxy-H2B1a] | 6.13E+03 counts | 4.65E+03 counts | 5.03E+03 counts | 4.08E+03 counts | 2.43E+03 counts | 7.98E+03 counts | 4.09E+03 counts | 5.21E+03 counts | 4.12E+03 counts | 5.38E+03 counts | 5.67E+03 counts | 5.92E+03 counts | 0.004 ± 0.0004 ratio | 5.06E+03 counts | 57.5 ± 13.2 h | 6.0 ± 0.2 h | 2.00 | 1.84 | 1.30 | 0.57 | MRTlast [1]: 29.4 ± 1.7 h; activity against An. stephensi [2]: minor mosquitocidal properties; mean survival of mosquitoes after blood meal ([2]; blood meal at Cmax level): decreased; mosquito survival ([2]; blood meal at Cmax level, observation period of 3 days): 35% |
